Tested on: lung gene expression
Experiment: RNA sequencing of lung tissue (BLM/EL244 vs BLM)
Type: in vivo, mouse
Conditions: lung tissue of BLM-treated mice, BLM/EL244 vs BLM
Description: RNA quality was assessed using an Agilent TapeStation 4150 with the High Sensitivity […] ScreenTape (Agilent), according to the manufacturer’s protocols. For library preparation, the QuantSeq 3’mRNA-Seq Library Prep Kit (Lexogen) was used according to manufacturer’s instructions. Briefly, 500 ng of RNA from each sample was used for first-strand synthesis, followed by RNA template removal, and second-strand synthesis initiated by random primers. In-line barcodes were introduced at this step, and this was followed by magnetic bead-based purification. The resulting libraries were amplified for 15 cycles and re-purified, with quantity and quality assessed on a Qubit 4 Fluorometer with the Invitrogen Qubit dsDNA HS Assay and an Agilent Tapestation 4150 with the High Sensitivity D1000 assay kit, respectively. The quantified libraries were pooled equimolarly; 50ng of total library mix was used for Adapter Conversion PCR Amplification using the Universal Library Conversion Kit (App-A), Version: V1.0 (MGI Tech Co., Ltd.), according to the manufacturer’s instructions.
The quantity and quality of the purified adapter conversion PCR (AC-PCR) product were evaluated on a Qubit 4 Fluorometer with the Invitrogen Qubit dsDNA HS Assay and on an Agilent Tapestation 4150 with the High Sensitivity D1000 assay kit, respectively. This was followed by DNA denaturation, Single-Strand Circularisation, Enzymatic Digestion, Enzymatic Digestion Product Cleanup and Quality Control steps on 1 pmol of AC-PCR product, according to the Universal Library Conversion Kit (App-A) User Manual (Version: A3).
Finally, 60 fmol of ssCirDNA were used for DNB preparation and sequencing on a DNBSEQ-G400 platform at the BSRC Alexander Fleming Genomics Facility, using a G400 App-A FCS SE100 High-throughput Sequencing Set (MGI Tech Co., Ltd.), according to the manufacturer’s instructions.
Alignment of the FASTQ files was performed against the mouse genome build mm10 using a custom Bash script.[143] Read counting on the 3′ UTRs and differential expression analysis were conducted using the metaseqR2 bioconductor package.[144] Genes corresponding to the following biotypes were excluded: polymorphic_pseudogene, processed_transcript, pseudogene, IG_V_pseudogene, misc_RNA, IG_C_gene, IG_J_gene, IG_D_gene, IG_LV_gene, TR_V_gene, TR_V_pseudogene, TEC, and processed_pseudogene. Gene counts were normalized with DESEQ[145] through metaseqR2. Genes with more than 10 counts in at least 50% of the samples were kept for further processing. For differential expression analysis, the PANDORA algorithm[146] was used to estimate a meta p-value integrating the results from the DESEQ, DESEQ2,[147] edgeR,[148] limma,[149] NBPSeq,[150] and NOISeq[151] algorithms. All additional parameters were set to default values.
Pathway enrichment analysis was performed for the Gene Ontology Biological process (BP) and Molecular Function (MF) terms through GeneCodis 4.[152] The volcano plots, scatterplots, Venn diagrams, and dot plots were generated using the ggplot2 Bioconductor package.

O=C1NC(=O)C(Cc2ccc(OCCC3CCN(C(=O)OCc4cc(Cl)cc(Cl)c4)CC3)cc2)S1 (centres unmarked) [EL244, 3,5-dichlorobenzyl 4-(2-(4-((2,4-dioxothiazolidin-5-yl)methyl)phenoxy)ethyl)piperidine-1-carboxylate]
Ces2g log2 nFC: 0.83
Ces2g nFC: 1.78
Cfap43 log2 nFC: 0.88
Cfap43 nFC: 1.84
Cfap100 log2 nFC: 0.89
Cfap100 nFC: 1.85
Cfap206 log2 nFC: 0.77
Cfap206 nFC: 1.70
Cftr log2 nFC: 0.96
Cftr nFC: 1.95
Cldn5 log2 nFC: 0.97
Cldn5 nFC: 1.96
Cpm log2 nFC: 0.68
Cpm nFC: 1.60
Crebl2 log2 nFC: 0.79
Crebl2 nFC: 1.73
Crem log2 nFC: 0.68
Crem nFC: 1.60
Crispld2 log2 nFC: 0.80
Crispld2 nFC: 1.74
Cry2 log2 nFC: 0.70
Cry2 nFC: 1.62
Csrnp1 log2 nFC: 0.83
Csrnp1 nFC: 1.78
Ctla2a log2 nFC: 0.72
Ctla2a nFC: 1.65
Ctla2b log2 nFC: 0.96
Ctla2b nFC: 1.94
Cyp2d22 log2 nFC: 0.97
Cyp2d22 nFC: 1.97
Cyp2f2 log2 nFC: 0.79
Cyp2f2 nFC: 1.72
Dgkh log2 nFC: 0.84
Dgkh nFC: 1.79
Dnali1 log2 nFC: 0.73
Dnali1 nFC: 1.66
Dok4 log2 nFC: 0.74
Dok4 nFC: 1.67
Dpep1 log2 nFC: 0.71
Dpep1 nFC: 1.63
Dusp1 log2 nFC: 0.86
Dusp1 nFC: 1.82
Ednrb log2 nFC: 0.97
Ednrb nFC: 1.96
Elmod1 log2 nFC: 0.89
Elmod1 nFC: 1.86
Eng log2 nFC: 0.81
Eng nFC: 1.76
Errfi1 log2 nFC: 0.95
Errfi1 nFC: 1.93
Fabp3 log2 nFC: 0.98
Fabp3 nFC: 1.97
Fmo1 log2 nFC: 0.86
Fmo1 nFC: 1.81
Fmo2 log2 nFC: 1.00
Fmo2 nFC: 2.00
Fos log2 nFC: 1.02
Fos nFC: 2.03
Fxyd1 log2 nFC: 0.80
Fxyd1 nFC: 1.75
Fzd4 log2 nFC: 0.69
Fzd4 nFC: 1.61
Galnt15 log2 nFC: 0.89
Galnt15 nFC: 1.85
Gm26236 log2 nFC: 1.03
Gm26236 nFC: 2.04
Gm47291 log2 nFC: 0.98
Gm47291 nFC: 1.98
Gm49391 log2 nFC: 0.96
Gm49391 nFC: 1.95
Gnao1 log2 nFC: 0.85
Gnao1 nFC: 1.80
Gpm6a log2 nFC: 0.83
Gpm6a nFC: 1.78
Gpr155 log2 nFC: 0.76
Gpr155 nFC: 1.69
Gprasp1 log2 nFC: 0.72
Gprasp1 nFC: 1.64
Gpt log2 nFC: 0.73
Gpt nFC: 1.66
Gsn log2 nFC: 1.06
Gsn nFC: 2.08
Gstm1 log2 nFC: 0.75
Gstm1 nFC: 1.68
Hecw2 log2 nFC: 0.81
Hecw2 nFC: 1.75
Hlf log2 nFC: 0.89
Hlf nFC: 1.86
Igf1r log2 nFC: 0.70
Igf1r nFC: 1.63
Il6ra log2 nFC: 0.84
Il6ra nFC: 1.79
Iqca log2 nFC: 0.87
Iqca nFC: 1.83
Itga8 log2 nFC: 0.88
Itga8 nFC: 1.85
Itih4 log2 nFC: 0.88
Itih4 nFC: 1.84
Iyd log2 nFC: 1.04
Iyd nFC: 2.05
Jdp2 log2 nFC: 0.71
Jdp2 nFC: 1.64
Klf3 log2 nFC: 0.69
Klf3 nFC: 1.62
Klf4 log2 nFC: 0.72
Klf4 nFC: 1.64
Klf9 log2 nFC: 0.85
Klf9 nFC: 1.80
Klrd1 log2 nFC: 0.95
Klrd1 nFC: 1.93
Kndc1 log2 nFC: 1.05
Kndc1 nFC: 2.07
Krt23 log2 nFC: 0.69
Krt23 nFC: 1.61
Lncpint log2 nFC: 1.06
Lncpint nFC: 2.08
Lpin1 log2 nFC: 0.80
Lpin1 nFC: 1.75
Lrrc74b log2 nFC: 1.02
Lrrc74b nFC: 2.03
Ltbp4 log2 nFC: 0.81
Ltbp4 nFC: 1.76
Lyve1 log2 nFC: 0.96
Lyve1 nFC: 1.94
Map3k6 log2 nFC: 0.95
Map3k6 nFC: 1.93
Mapt log2 nFC: 0.89
Mapt nFC: 1.85
Mcf2l log2 nFC: 0.95
Mcf2l nFC: 1.93
Mettl7a1 log2 nFC: 0.80
Mettl7a1 nFC: 1.75
Mir29c log2 nFC: 0.89
Mir29c nFC: 1.85
Mir1668 log2 nFC: 0.75
Mir1668 nFC: 1.69
Mir6899 log2 nFC: 0.84
Mir6899 nFC: 1.80
Mtcl1 log2 nFC: 0.73
Mtcl1 nFC: 1.66
Ndrg2 log2 nFC: 0.88
Ndrg2 nFC: 1.84
Nek5 log2 nFC: 0.81
Nek5 nFC: 1.76
Nova2 log2 nFC: 0.90
Nova2 nFC: 1.86
Nr1d1 log2 nFC: 0.84
Nr1d1 nFC: 1.79
Nrgn log2 nFC: 1.04
Nrgn nFC: 2.05
Nrxn2 log2 nFC: 0.88
Nrxn2 nFC: 1.84
Ogn log2 nFC: 0.86
Ogn nFC: 1.82
Osgin1 log2 nFC: 0.74
Osgin1 nFC: 1.68
Pcolce2 log2 nFC: 0.98
Pcolce2 nFC: 1.97
Pcp4l1 log2 nFC: 0.75
Pcp4l1 nFC: 1.68
Phactr1 log2 nFC: 0.74
Phactr1 nFC: 1.67
Phf1 log2 nFC: 0.75
Phf1 nFC: 1.68
Pla2g1b log2 nFC: 0.79
Pla2g1b nFC: 1.72
Plxna2 log2 nFC: 0.78
Plxna2 nFC: 1.72
Ppargc1a log2 nFC: 0.86
Ppargc1a nFC: 1.82
Ppl log2 nFC: 0.87
Ppl nFC: 1.83
Prob1 log2 nFC: 0.76
Prob1 nFC: 1.70
Ptgfr log2 nFC: 0.93
Ptgfr nFC: 1.90
Pxdc1 log2 nFC: 0.83
Pxdc1 nFC: 1.78
Rapgef5 log2 nFC: 0.88
Rapgef5 nFC: 1.84
Rara log2 nFC: 0.73
Rara nFC: 1.66
Rgs9 log2 nFC: 1.01
Rgs9 nFC: 2.02
Rora log2 nFC: 0.80
Rora nFC: 1.74
S1pr4 log2 nFC: 0.94
S1pr4 nFC: 1.91
Scn3a log2 nFC: 0.75
Scn3a nFC: 1.68
Scube2 log2 nFC: 0.74
Scube2 nFC: 1.68
Sec14l3 log2 nFC: 0.69
Sec14l3 nFC: 1.62
Sec14l4 log2 nFC: 0.77
Sec14l4 nFC: 1.70
Sell log2 nFC: 1.03
Sell nFC: 2.04
Sema3g log2 nFC: 0.78
Sema3g nFC: 1.72
Sftpa1 log2 nFC: 0.70
Sftpa1 nFC: 1.62
Sgip1 log2 nFC: 0.90
Sgip1 nFC: 1.87
Sgms1 log2 nFC: 0.71
Sgms1 nFC: 1.63
Slc2a4rg-ps log2 nFC: 0.85
Slc2a4rg-ps nFC: 1.80
Slc7a10 log2 nFC: 0.97
Slc7a10 nFC: 1.96
Slc16a11 log2 nFC: 0.79
Slc16a11 nFC: 1.73
Slc43a3 log2 nFC: 0.73
Slc43a3 nFC: 1.66
Slit3 log2 nFC: 1.02
Slit3 nFC: 2.03
Snora21 log2 nFC: 0.75
Snora21 nFC: 1.68
Sntb1 log2 nFC: 0.72
Sntb1 nFC: 1.64
Sorbs1 log2 nFC: 0.70
Sorbs1 nFC: 1.62
Sorbs3 log2 nFC: 0.80
Sorbs3 nFC: 1.74
Srcin1 log2 nFC: 0.91
Srcin1 nFC: 1.87
Stard8 log2 nFC: 0.69
Stard8 nFC: 1.61
Syne1 log2 nFC: 0.70
Syne1 nFC: 1.62

Source: article PMC13198257, “An aerosolized dual-action autotaxin inhibitor-PPARγ agonist for the treatment of pulmonary fibrosis” (Cell Reports Medicine, 2026)
